Experimental data from ChEMBL document CHEMBL1201862, “PubChem BioAssay data set” (2004).
Activity calls are given as the source filed them.

What was measured:
H9c2 = assay: cells; format: functional, cell-based; conditions: Rattus norvegicus, H9c2, Myocardium;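 note: confirmatory concentration-response retest of ultra-high-throughput screening hits for modulation of myocardial damage; cell death induced by hydrogen peroxide oxidative stress; compound pretreatment for 60 min then peroxide exposure for 2 h; potency is for protecting the cells against peroxide damage rather than for killing them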
[1] = target: T1, Heat shock factor protein 1 (Mus musculus, UniProt P38532); assay: inhibition of MG132-induced HSE-luciferase signal, confirmation, cell-based, NIH3T3, luminescence, dose retest (AID 2382); format: functional;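 note: NIH3T3 fibroblasts with HSF1-driven luciferase reporter stressed by proteasome inhibitor MG132; luminescence from HSF1-driven luciferase expression after 8 hours of MG132 stress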
T1 sequence (P38532 whole entry): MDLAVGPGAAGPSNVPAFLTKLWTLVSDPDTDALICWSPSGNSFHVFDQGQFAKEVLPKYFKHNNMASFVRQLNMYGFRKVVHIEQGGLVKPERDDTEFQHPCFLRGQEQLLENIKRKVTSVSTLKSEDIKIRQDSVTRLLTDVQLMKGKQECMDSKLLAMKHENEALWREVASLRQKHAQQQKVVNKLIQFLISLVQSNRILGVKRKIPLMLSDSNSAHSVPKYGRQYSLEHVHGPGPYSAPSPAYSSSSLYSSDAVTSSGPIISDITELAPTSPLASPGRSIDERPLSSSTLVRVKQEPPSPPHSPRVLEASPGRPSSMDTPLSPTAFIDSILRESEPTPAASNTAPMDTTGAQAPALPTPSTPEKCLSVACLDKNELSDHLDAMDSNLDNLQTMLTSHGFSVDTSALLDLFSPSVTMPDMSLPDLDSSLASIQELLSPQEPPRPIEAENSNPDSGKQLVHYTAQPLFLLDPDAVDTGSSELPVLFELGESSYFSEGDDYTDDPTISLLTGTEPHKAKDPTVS

[2] = inhibitors of intracellular T. cruzi replication, confirmation, NIH3T3 host cells, beta-gal luminescence (AID 2044); format: functional, cell-based;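 note: intracellular parasites grown in NIH/3T3 mouse fibroblasts as host cells; luminescent beta-galactosidase reporter signal from transgenic T. cruzi replicating inside host cells; inhibitors lower the luminescence signal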
[3] = cytotoxicity toward NIH3T3 fibroblasts, dose response, counter-screen, cell-based, ATP luminescence, mouse fibroblasts (AID 2010); format: functional;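 note: cells exposed to compound for about 90 hours before reading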
cells [4] = assay: cells
[5] = system: Streptococcus sp. 'group A'; assay: growth inhibition of control SK(-) GAS strain, dose response, counter-screen for streptokinase expression inhibitor project, luminescence, kanamycin, BacTiterGlo, confirmation (AID 1900); format: functional, organism-based
Streptokinase A = target: T2, Streptokinase A (Streptococcus pyogenes serotype M1, UniProt P10520); assay: S. pyogenes streptokinase expression inhibitors, potency, dose response, plasminogen activation absorbance, OD405 (AID 1914); format: functional, Streptococcus pyogenes M1 GAS;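 note: secreted streptokinase activity via plasminogen activation per viability signal from cell pellet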
T2 sequence (P10520 whole entry): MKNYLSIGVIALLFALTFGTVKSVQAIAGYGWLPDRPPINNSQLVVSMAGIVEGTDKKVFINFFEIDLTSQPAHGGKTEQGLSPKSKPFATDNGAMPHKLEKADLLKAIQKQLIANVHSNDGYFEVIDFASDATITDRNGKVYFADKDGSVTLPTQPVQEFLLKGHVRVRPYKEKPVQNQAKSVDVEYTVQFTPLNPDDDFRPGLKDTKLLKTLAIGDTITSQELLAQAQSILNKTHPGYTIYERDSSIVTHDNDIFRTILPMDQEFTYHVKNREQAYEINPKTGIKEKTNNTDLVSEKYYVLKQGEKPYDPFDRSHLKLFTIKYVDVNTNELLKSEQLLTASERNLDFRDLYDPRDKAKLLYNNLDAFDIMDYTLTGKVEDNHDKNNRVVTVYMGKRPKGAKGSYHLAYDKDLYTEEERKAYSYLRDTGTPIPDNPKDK

Streptococcus = assay: Group A Streptococcus viability loss, dose response, counter-screen for streptokinase expression inhibitor project, luminescence, BacTiterGlo (AID 1915); format: functional, organism-based;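 note: potency for reduction of bacterial viability or growth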
[6] = NIH-3T3 fibroblast cytotoxicity, dose response, cytotoxicity control, cell-based, fluorescence, Alamar Blue, secondary assay (AID 2327); format: functional;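 note: NIH-3T3 mouse fibroblasts cultured with fluconazole at 8 µg/mL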
[7] = C. albicans growth with fluconazole, confirmation, fluorescence, retest (AID 2467); format: functional, cell-based
[8] = Luminescence Cell-Based Dose Retest to Confirm Inhibitors of Cancer Stem Cells. [Related pubchem assays (depositor defined):AID2717, AID2721]; format: functional; conditions: Homo sapiens
[9] = THP-1 cell cytotoxicity, dose response, cytotoxicity control for non-replicating M. tuberculosis project (AID 489025); format: functional
[10] = microbe, parasite or virus in culture; format: functional; conditions: Mycobacterium tuberculosis
cells [11] = format: functional
Estrogen receptor = target: T3, Estrogen receptor (Homo sapiens, UniProt P03372);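 note: potency for inhibiting coactivator peptide recruitment to the receptor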
T3 sequence (P03372 whole entry): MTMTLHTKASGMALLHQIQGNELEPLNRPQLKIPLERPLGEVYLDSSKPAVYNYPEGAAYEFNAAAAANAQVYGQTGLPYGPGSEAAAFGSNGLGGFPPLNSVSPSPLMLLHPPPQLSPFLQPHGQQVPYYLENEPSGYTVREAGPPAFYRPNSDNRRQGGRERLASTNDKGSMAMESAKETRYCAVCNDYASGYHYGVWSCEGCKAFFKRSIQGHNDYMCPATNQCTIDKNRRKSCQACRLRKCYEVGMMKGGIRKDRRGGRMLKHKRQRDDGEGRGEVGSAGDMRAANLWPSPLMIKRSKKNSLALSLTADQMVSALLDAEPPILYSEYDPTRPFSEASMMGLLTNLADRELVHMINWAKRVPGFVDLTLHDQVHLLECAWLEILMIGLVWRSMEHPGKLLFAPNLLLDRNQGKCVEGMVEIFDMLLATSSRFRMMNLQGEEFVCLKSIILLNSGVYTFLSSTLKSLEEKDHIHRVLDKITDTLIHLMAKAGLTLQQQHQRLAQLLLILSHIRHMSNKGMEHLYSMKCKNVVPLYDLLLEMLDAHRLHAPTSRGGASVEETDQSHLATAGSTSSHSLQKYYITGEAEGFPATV

Large T antigen = Large T antigen (Simian virus 40, UniProt P03070); format: functional, Betapolyomavirus macacae;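 note: Confirmatory-stage PubChem screen for compounds that inhibit SV40 T antigen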
Sequence of Large T antigen (P03070 whole entry): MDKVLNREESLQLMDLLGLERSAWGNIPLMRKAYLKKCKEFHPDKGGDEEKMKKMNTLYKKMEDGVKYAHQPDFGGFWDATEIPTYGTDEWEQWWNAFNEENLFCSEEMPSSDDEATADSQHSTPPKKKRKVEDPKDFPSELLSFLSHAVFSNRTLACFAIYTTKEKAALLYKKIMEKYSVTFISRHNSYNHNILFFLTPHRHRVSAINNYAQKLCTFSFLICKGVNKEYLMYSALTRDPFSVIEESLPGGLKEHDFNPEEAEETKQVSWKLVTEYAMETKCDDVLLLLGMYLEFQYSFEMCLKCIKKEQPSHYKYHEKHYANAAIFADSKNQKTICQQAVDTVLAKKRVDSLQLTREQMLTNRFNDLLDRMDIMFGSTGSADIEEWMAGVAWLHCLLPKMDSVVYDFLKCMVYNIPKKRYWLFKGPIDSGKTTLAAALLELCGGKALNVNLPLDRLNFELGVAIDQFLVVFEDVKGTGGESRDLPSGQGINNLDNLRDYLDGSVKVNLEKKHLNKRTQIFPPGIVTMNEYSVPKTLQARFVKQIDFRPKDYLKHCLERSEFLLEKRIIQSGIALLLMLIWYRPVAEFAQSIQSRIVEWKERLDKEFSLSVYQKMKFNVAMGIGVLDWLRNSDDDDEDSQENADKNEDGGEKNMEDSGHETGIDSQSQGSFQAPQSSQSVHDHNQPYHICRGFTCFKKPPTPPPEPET

[12] = target: T4, Rac GTPase-activating protein 1 (Homo sapiens, UniProt Q9H0H5); assay: MgcRacGAP GTPase-activating activity inhibitors, confirmation, biochemical, ADP Hunter fluorescence, primary and confirmatory (AID 624330); format: functional
T4 sequence (Q9H0H5 whole entry): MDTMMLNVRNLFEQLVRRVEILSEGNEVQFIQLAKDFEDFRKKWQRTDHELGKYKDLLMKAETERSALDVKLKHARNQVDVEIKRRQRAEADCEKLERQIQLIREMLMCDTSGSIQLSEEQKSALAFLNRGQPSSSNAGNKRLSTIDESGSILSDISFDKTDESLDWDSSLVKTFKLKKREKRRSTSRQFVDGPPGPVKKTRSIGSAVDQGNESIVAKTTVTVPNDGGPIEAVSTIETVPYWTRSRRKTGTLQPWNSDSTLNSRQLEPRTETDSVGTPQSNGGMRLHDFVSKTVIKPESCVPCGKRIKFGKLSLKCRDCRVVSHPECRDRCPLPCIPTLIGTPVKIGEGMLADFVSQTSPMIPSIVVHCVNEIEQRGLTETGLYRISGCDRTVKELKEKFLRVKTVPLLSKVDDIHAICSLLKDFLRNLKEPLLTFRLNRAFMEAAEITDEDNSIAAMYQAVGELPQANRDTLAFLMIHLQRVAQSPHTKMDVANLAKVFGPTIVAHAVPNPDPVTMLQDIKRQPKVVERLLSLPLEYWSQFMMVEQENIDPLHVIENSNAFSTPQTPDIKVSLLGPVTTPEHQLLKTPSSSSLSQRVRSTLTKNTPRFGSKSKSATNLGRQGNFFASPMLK

[13] = target: T5, Calpain-2 catalytic subunit (Sus scrofa, UniProt P43367); assay: pig calpain II inhibitor potency, dose response, biochemical, fluorogenic peptide substrate (AID 1420); format: functional
T5 sequence (P43367 whole entry): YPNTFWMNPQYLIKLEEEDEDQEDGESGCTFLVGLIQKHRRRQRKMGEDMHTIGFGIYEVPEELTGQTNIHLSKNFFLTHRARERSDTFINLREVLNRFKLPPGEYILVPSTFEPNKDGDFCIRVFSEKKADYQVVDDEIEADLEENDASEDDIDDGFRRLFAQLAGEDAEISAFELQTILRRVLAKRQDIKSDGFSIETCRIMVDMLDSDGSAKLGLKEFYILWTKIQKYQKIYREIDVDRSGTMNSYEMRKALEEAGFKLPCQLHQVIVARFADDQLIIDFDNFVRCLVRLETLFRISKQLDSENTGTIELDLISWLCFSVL

Cytochrome P450 2D6 = Cytochrome P450 2D6 (Homo sapiens, UniProt P10635);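 note: CYP2D6 member of a cytochrome P450 panel assay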
Sequence of Cytochrome P450 2D6 (P10635 whole entry): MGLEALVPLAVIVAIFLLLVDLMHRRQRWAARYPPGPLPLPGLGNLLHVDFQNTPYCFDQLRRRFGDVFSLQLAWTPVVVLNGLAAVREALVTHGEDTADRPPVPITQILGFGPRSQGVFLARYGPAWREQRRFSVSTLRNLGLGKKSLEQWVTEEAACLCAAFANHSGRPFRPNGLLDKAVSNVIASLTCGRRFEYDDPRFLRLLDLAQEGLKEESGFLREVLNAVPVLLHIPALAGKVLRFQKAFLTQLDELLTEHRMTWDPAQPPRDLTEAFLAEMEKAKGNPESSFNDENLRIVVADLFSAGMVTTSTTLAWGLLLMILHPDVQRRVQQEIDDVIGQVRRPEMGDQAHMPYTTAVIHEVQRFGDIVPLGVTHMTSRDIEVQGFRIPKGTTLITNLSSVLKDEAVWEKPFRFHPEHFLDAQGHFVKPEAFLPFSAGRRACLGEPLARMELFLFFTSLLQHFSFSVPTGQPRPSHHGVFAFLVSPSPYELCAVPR

Cytochrome P450 2C9 = Cytochrome P450 2C9 (Homo sapiens, UniProt P11712)
Sequence of Cytochrome P450 2C9 (P11712 whole entry): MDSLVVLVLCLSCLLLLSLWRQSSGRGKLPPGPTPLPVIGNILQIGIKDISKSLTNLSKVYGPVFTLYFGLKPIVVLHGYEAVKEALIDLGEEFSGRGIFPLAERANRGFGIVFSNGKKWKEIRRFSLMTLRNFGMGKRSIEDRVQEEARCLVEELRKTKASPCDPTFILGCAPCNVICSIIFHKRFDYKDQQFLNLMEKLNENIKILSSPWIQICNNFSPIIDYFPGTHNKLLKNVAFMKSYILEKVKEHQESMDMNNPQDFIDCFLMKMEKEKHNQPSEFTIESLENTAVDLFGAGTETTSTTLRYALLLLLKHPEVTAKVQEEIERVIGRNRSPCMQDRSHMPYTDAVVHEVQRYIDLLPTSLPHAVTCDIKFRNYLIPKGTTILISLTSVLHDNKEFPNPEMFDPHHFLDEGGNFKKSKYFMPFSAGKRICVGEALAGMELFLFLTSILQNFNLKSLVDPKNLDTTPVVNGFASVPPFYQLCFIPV

Cc1ccc(NC(=O)CCCc2nc(O)c3ccccc3n2)c(Cl)c1
IC50 (H9c2): 25.1 µM (active)

Cc1ccc(NC(=O)c2ccc(Nc3c([N+](=O)[O-])cc([N+](=O)[O-])cc3[N+](=O)[O-])cc2)cc1
EC50 [1]: 8.29 µM (active) | EC50 [2]: < 0.1 µM (active) | EC50 [3]: 15.8 µM (active) | EC50 (cells [4]): 0.071 µM (active)

O=C(N/N=C/c1ccccn1)c1[nH]c2ccc([N+](=O)[O-])cc2c1-c1ccccc1
IC50 (H9c2): > 79 µM (inactive)

CCOC(=O)c1nn(-c2cccc(OC)c2)c2nc(Nc3ccccc3)cc(=O)n12
EC50 [5]: 3.12 µM (active) | EC50 (Streptokinase A): > 150 µM (not active) | EC50 (Streptococcus): 30 µM (active) | IC50 (H9c2): > 79 µM (inactive)

CNS(=O)(=O)c1cc2c3c(cccc3c1)C(=O)NC2=O
IC50 (H9c2): 16.9 µM (active)

O=C(CC1CC2CCC1C2)Nc1nc(-c2ccccn2)cs1 (centres undefined)
EC50 [6]: > 150 µM (inactive) | EC50 [5]: 4.21 µM (active) | EC50 (Streptokinase A): > 150 µM (not active) | EC50 [7]: > 38 µM (not active) | EC50 (Streptococcus): 13.2 µM (active) | IC50 (H9c2): > 79 µM (inactive)

COc1ccccc1CN=C(S)Nc1ccc2nc(N3CCN(C)CC3)cc(C)c2c1
EC50 [2]: < 0.1 µM (active) | EC50 [3]: > 60 µM (not active) | AC50 [8]: 0.168 µM (active) | EC50 (cells [4]): 0.129 µM (active)

Cc1ccc(C(=O)C=CNNC(=O)c2ccccc2)cc1
CC50 [9]: > 40 µM (active)

Cc1ccc2[nH]c(C)c(CCNC(=O)c3cc4cc([N+](=O)[O-])ccc4oc3=O)c2c1
CC50 [10]: > 40 µM (active) | IC50 (cells [11]): 4.92 µM (active)

Cc1nnc(NC(=O)Cc2cccs2)s1
IC50 (Estrogen receptor): 19 µM (active)

C/C(=N\NC(=O)CSc1nc2ccccc2o1)c1ccc(O)cc1
IC50 (Large T antigen): 18.9 µM (active) | IC50 [12]: 86.9 µM (active)

Cc1cccc(COc2ccccc2/C=N/Nc2ccc([N+](=O)[O-])cc2)c1
EC50 [6]: > 150 µM (inactive) | EC50 [7]: > 38 µM (not active) | CC50 [10]: > 40 µM (active)

CCn1cnc2cc(NCc3cccc(OC)c3O)ccc21
IC50 (Large T antigen): 13.3 µM (active)

O=C(CC(Sc1ccc(Br)cc1)C(=O)O)c1ccc(Br)cc1 (centres undefined)
IC50 (Large T antigen): 49.4 µM (active)

O=C(CN1CCN(c2ccccc2O)CC1)Nc1ccccc1C(=O)NCCc1ccccc1
CC50 [10]: > 40 µM (active)

Cn1c(=O)c2c3c(sc2n2c(SCC(N)=O)nnc12)CC(C(C)(C)C)CC3 (centres undefined)
CC50 [10]: > 40 µM (active) | IC50 [13]: 42.9 µM (not active)

COc1ccc(Cn2c(N)c(C(=O)NCc3ccco3)c3nc4ccccc4nc32)cc1
IC50 (Estrogen receptor): 17.3 µM (active) | AC50 (Cytochrome P450 2D6): 14.1 µM (inconclusive) | AC50 (Cytochrome P450 2C9): 1 µM (inconclusive)

N#CSCC(=O)N1c2ccccc2CCc2ccccc21
IC50 (Large T antigen): 22 µM (active)

C=CC(=O)Oc1ccc(N2Cc3ccccc3C2=O)cc1
IC50 (Large T antigen): 4.45 µM (active)

N#Cc1c(SCC(=O)Nc2nccs2)nc2c(c1-c1ccco1)CCCC2
EC50 [1]: > 195 µM (not active) | IC50 (Estrogen receptor): > 50 µM (not active)

CC(C)(C)NC(=O)C(c1c[nH]c2ccccc12)N(C(=O)Cn1nnc(-c2ccc(F)cc2)n1)c1cccc(O)c1 (centres undefined)
CC50 [10]: > 40 µM (active)

CCOC(=O)C1CCCN(C(=O)CCC(=O)Nc2ccc3nc(N4CCOCC4)cc(C)c3c2)C1 (centres undefined)
IC50 (H9c2): > 79 µM (inactive)

O=C(CSc1nnc(-c2ccco2)[nH]1)Nc1sc2c(c1C(=O)Nc1ccccc1)CCCC2
IC50 (Estrogen receptor): 40 µM (not active)

CC(OC(=O)Cc1nnc(O)c2ccccc12)C(=O)Nc1ccc(F)cc1Cl (centres undefined)
IC50 (H9c2): 15.4 µM (active)

COc1ccc(-c2nnn(CC(=O)OC3CCCCC3)n2)cc1OC
CC50 [9]: > 40 µM (active) | IC50 (cells [11]): 11.6 µM (active)

O=C(Nc1cccc(-c2nc3ccccc3s2)c1)c1cc(-n2cnnc2)ccc1Cl
EC50 [6]: 20.3 µM (inconclusive) | EC50 [7]: 2.98 µM (active) | CC50 [10]: > 40 µM (active)

CC1CCC2(CC1)NC(=O)N(CC(=O)c1ccc[nH]1)C2=O (centres undefined)
IC50 (Estrogen receptor): > 50 µM (not active)

CO/C(O)=C(/C=N/c1ccc(O)cc1)[N+](=O)[O-]
IC50 (Large T antigen): 62.1 µM (active) | IC50 [12]: 25.5 µM (active)

O=C(CCc1nc(O)c2ccccc2n1)NNC(=O)c1ccc(F)cc1
IC50 (H9c2): > 79 µM (inactive)

O=C(CC12CC3CC(CC(C3)C1)C2)N/N=C/c1ccc([N+](=O)[O-])o1
EC50 [2]: < 0.1 µM (active) | EC50 [3]: > 60 µM (not active) | EC50 (cells [4]): 0.019 µM (active)

O=C(N/N=C/c1ccc(O)c(O)c1)c1cc(-c2ccccc2)nc2ccccc12
IC50 (Large T antigen): 54.1 µM (active)
